Literature values, collected in US11701406B2 (The Board of Trustees of the Leland Stanford Junior …, priority 2017, dated 2023).

target: T1, NEDD8 activating enzyme (NAE) (Homo sapiens, UniProt Q8TBC4); details: read-out: IC50 (Activity, Inhibitors of NAE)
T1 sequence (Q8TBC4 2-463 limits assumed): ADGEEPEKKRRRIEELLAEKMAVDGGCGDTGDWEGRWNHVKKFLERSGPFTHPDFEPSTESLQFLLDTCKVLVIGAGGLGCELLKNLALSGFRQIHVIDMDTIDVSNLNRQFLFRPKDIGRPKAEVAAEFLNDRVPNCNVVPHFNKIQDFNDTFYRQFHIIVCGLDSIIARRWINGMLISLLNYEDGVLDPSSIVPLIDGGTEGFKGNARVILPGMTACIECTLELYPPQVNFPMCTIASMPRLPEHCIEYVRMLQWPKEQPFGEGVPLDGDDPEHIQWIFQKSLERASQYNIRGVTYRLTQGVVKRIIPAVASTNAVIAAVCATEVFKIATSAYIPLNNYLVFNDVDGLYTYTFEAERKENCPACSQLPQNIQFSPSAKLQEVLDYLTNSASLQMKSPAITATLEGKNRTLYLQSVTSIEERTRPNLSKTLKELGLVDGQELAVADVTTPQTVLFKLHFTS
T1 sequence (Q13564 2-534 partner limits assumed): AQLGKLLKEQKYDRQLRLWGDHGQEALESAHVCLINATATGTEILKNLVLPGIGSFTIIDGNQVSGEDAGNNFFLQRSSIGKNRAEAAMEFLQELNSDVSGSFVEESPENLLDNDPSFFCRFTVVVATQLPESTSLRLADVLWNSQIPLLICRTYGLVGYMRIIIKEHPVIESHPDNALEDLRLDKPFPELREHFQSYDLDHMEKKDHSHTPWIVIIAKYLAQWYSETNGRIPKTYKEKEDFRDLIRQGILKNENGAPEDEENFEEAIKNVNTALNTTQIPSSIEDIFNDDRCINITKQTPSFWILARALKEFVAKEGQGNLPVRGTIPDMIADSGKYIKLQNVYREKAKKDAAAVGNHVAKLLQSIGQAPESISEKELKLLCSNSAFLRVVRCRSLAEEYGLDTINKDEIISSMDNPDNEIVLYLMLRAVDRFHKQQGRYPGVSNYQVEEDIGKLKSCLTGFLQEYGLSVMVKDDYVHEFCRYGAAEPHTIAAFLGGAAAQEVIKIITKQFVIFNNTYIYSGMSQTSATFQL

Q: Which IC50 does the source give for `Nc1ccc(SCC(=O)Nc2ccc3nc(NC(=O)c4ccc(C(F)(F)F)cc4)sc3c2)cc1` here?
A: The IC50 was 100 nM.

Q: With `Clc1ccc(CCNC2CCN(Cc3ccccc3)CC2)c(Cl)c1` [M22] as the molecule, how does the IC50 read?
A: Its IC50 is 9000 nM.

Q: For `CCN1CCN(C(=O)N[C@@H](C(=O)N[C@@H]2C(=O)N3C2SC(C)(C)[C@@H]3C(=O)O)c2ccccc2)C(=O)C1=O` (stereo partly drawn) [Piperacillin], which IC50 is on record?
A: The IC50 was 1000 nM.

Q: With `CN1CCOc2c1ccc(F)c2C#Cc1cn([C@@H]2O[C@@H](CCS(N)(=O)=O)[C@@H](O)[C@H]2O)c2ncnc(N)c12` [TAS 1] as the molecule, how does the IC50 read?
A: Its IC50 is 1 nM.

Q: With `CN1CCOc2c1ccc(F)c2C#Cc1cn([C@@H]2C[C@@H](CCS(N)(=O)=O)[C@@H](O)[C@H]2O)c2ncnc(N)c12` [TAS 2] as the molecule, how does the IC50 read?
A: The IC50 was 20 nM.

Q: With MLN7243 as the molecule, how does the IC50 read?
A: The IC50 was 1 nM.
